These are literature values, as cited in article PMC3826776 (Bioorganic & medicinal chemistry letters, 2011).

For data set [1], the system named is mGluR5. Particulars: read-out: IC50 (literature values); literature value.
In data set [2] the target is mGluR5. The conditions noted are these: read-out: Ki (literature values); literature value.
Data set [3] has as its system brain p-glycoprotein efflux pump (P-gp). The conditions noted are these: stated without reference.

For the molecule `Cc1cccc(C#Cc2ccccc2)n1` [MPEP, 2-methyl-6-(phenylethynyl)-pyridine], the 50% inhibitory concentration (IC50) with mGluR5 [1] was 2 nM. For the same molecule, on mGluR5 [2], the Ki is 12 nM. The P-gp substrate result in data set [3] is “not P-gp substrates”.
Take `Cc1nc(C#Cc2cccnc2)cs1` [MTEP, 3-[(2-methyl-1,3-thiazol-4yl)-ethynyl]-pyridine]: in data set [3], the P-gp substrate entry is listed as “not P-gp substrates”.

The IC50 is the point on the concentration scale where inhibition reaches its midpoint. In general, Ki refers to a measure of affinity in units of concentration, obtained from inhibition or displacement.
